For 30 molecules, IC50 results are on record in patent US9981916B2 (Genentech, Inc., priority 2013, dated 2018).

Molecules are shown by their SMILES.

The assay addresses T1, RORc ligand binding domain (Homo sapiens, UniProt P51449).
T1 construct: host or cells: E. coli
T1 sequence (P51449 269-508 limits assumed): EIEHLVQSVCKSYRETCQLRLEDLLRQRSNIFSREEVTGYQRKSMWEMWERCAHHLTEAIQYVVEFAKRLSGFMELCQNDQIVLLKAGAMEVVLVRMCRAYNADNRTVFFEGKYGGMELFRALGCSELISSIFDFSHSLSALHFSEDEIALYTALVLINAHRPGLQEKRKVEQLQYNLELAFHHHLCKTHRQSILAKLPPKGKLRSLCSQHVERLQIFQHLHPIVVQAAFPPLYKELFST
Kind of assay: In vitro RORc ligand binding assay (25-[3H]hydroxycholesterol displacement, filter binding). To be noted: 6 nM 25-[3H]hydroxycholesterol, 0.6 ug/mL RORc receptor, 3 h at 25° C. In outline:
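Compounds in 5% DMSO, either dose-response or screened at 1 and 10 uM, competed with 6 nM 25-[3H]hydroxycholesterol for 0.6 ug/mL RORc over 3 h at 25° C (HEPES pH 7.4, NaCl, MgCl2, DTT, BSA buffer). Bound tracer was filter-harvested and counted; nonspecific binding came from 1 uM 25-hydroxycholesterol.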

With `CN(C(=O)CO)[C@@]12CC[C@@H](c3cc(-c4c(F)cccc4F)nnc31)C2(C)C` [Example 313, N-((5R,8R)-3-(2,6-difluorophenyl)-9,9-dimethyl-5,6,7,8-tetrahydro-5,8-methanocinnolin-8-yl)-2-hydroxy-N-methylacetamide], the IC50 is 393 nM. In other words, the sub-micromolar range. The figure for `CONC(=O)[C@]12CC[C@H](c3cc(-c4c(F)cccc4F)nnc31)C2(C)C` [Example 91, (5S,8S)-3-(2,6-difluorophenyl)-N-methoxy-9,9-dimethyl-6,7-dihydro-5,8-methanocinnoline-8(5H)-carboxamide] is 384 nM; for `CC1(C)[C@@H]2CC[C@@]1(C(=O)N1CCC(C(F)(F)F)C1)c1nnc(-c3c(F)cccc3F)cc12` (stereo partly drawn) [Example 208, ((5S,8S)-3-(2,6-difluorophenyl)-9,9-dimethyl-5,6,7,8-tetrahydro-5,8-methanocinnolin-8-yl)(3-(trifluoromethyl)pyrrolidin-1-yl)methanone] it is 142 nM. As for `CC1(C)[C@@H]2CC[C@@]1(I)c1nnc(-c3ccccc3F)cc12` [Example 200, (5R,8S)-3-(2-fluorophenyl)-8-iodo-9,9-dimethyl-5,6,7,8-tetrahydro-5,8-methanocinnoline], the figure is 338 nM. For the molecule `CNC(=O)[C@]12CC[C@H](c3cc(-c4c(F)cccc4F)nnc31)C2(C)C` [Example 53, (5S,8S)-3-(2,6-difluorophenyl)-N,9,9-trimethyl-6,7-dihydro-5,8-methanocinnoline-8(5H)-carboxamide], the IC50 came to 139 nM. The figure for `CC1(C)[C@@H]2CC[C@@]1(C(=O)N1CCC(C(N)=O)C1)c1nnc(-c3c(F)cccc3F)cc12` (stereo partly drawn) [Example 249, 1-((5S,8S)-3-(2,6-difluorophenyl)-9,9-dimethyl-5,6,7,8-tetrahydro-5,8-methanocinnoline-8-carbonyl)pyrrolidine-3-carboxamide] is 3120 nM. As for `Cc1nnc(N(CC(F)F)C[C@@]23CC[C@@H](c4cc(-c5c(F)cccc5F)nnc42)C3(C)C)o1` [Example 166, N-(2,2-difluoroethyl)-N-(((5R,8S)-3-(2,6-difluorophenyl)-9,9-dimethyl-5,6,7,8-tetrahydro-5,8-methanocinnolin-8-yl)methyl)-5-methyl-1,3,4-oxadiazol-2-amine], the figure is 9 nM. The figure for `CC(=O)N[C@@]12CC[C@@H](c3cc(-c4ccccc4F)nnc31)C2(C)C` [Example 81, N-[(5R,8R)-3-(2-fluorophenyl)-9,9-dimethyl-6,7-dihydro-5,8-methanocinnolin-8(5H)-yl]acetamide] is 2070 nM; for `CC1(C)[C@H]2CC[C@]1(N1CCOC1=O)c1nnc(-c3c(F)cccc3F)cc12` [Example 257, 3-((5R,8R)-3-(2,6-difluorophenyl)-9,9-dimethyl-5,6,7,8-tetrahydro-5,8-methanocinnolin-8-yl)oxazolidin-2-one] it is 438 nM.

In turn, `CC(=O)OC[C@]12CC[C@H](c3cc(-c4ccccc4F)nnc31)C2(C)C` [Example 12] came in with an IC50 of 45 nM. This IC50 is about 9.7-fold lower than that of the molecule before. The figure for `CC1(C)[C@H]2CC[C@]1(C(=O)NC1COC1)c1nnc(-c3c(F)cccc3F)cc12` [Example 187, (5R,8R)-3-(2,6-difluorophenyl)-9,9-dimethyl-N-(oxetan-3-yl)-5,6,7,8-tetrahydro-5,8-methanocinnoline-8-carboxamide] is 2400 nM. The figure for `CN(C)Cc1nnc([C@@]23CC[C@@H](c4cc(-c5c(F)cccc5F)nnc42)C3(C)C)o1` [Example 196, 1-(5-((5R,8R)-3-(2,6-difluorophenyl)-9,9-dimethyl-5,6,7,8-tetrahydro-5,8-methanocinnolin-8-yl)-1,3,4-oxadiazol-2-yl)-N,N-dimethylmethanamine] is 1890 nM.

Molecule `CNC(=O)C[C@]12CC[C@H](c3cc(-c4ccccc4F)nnc31)C2(C)C` [Example 37, 2-[(5S,8S)-3-(2-fluorophenyl)-9,9-dimethyl-6,7-dihydro-5,8-methanocinnolin-8(5H)-yl]-N-methylacetamide] had an IC50 of 880 nM. `CC1(C)[C@H]2CC[C@]1(CN1CCCC1=O)c1nnc(-c3c(F)cccc3F)cc12` [Example 273, 1-(((5R,8S)-3-(2,6-difluorophenyl)-9,9-dimethyl-5,6,7,8-tetrahydro-5,8-methanocinnolin-8-yl)methyl)pyrrolidin-2-one]: the IC50 was found to be 453 nM.

The molecule `CC(=O)OC[C@@]12CC[C@@H](c3cc(Oc4c(F)cccc4F)nnc31)C2(C)C` [Example 339, ((5R,8R)-3-(2,6-difluorophenoxy)-9,9-dimethyl-5,6,7,8-tetrahydro-5,8-methanocinnolin-8-yl)methyl acetate] displayed an IC50 of 100 nM. This IC50 lies about 4.5-fold lower than the previous one.

Turning to `CN([C@@]12CC[C@@H](c3cc(-c4c(F)cccc4F)nnc31)C2(C)C)S(C)(=O)=O` [Example 286, N-((5R,8R)-3-(2,6-difluorophenyl)-9,9-dimethyl-5,6,7,8-tetrahydro-5,8-methanocinnolin-8-yl)-N-methylmethanesulfonamide], the IC50 was found to be 219 nM. As for `CC1(C)[C@H]2C[C@@H](F)[C@]1(C)c1nnc(-c3ccccc3F)cc12` [Example 31, (5R,7R,8S)-7-fluoro-3-(2-fluorophenyl)-8,9,9-trimethyl-5,6,7,8-tetrahydro-5,8-methanocinnoline], the figure is 2130 nM; as for `CN(C)Cc1nc(C[C@@]23CC[C@@H](c4cc(-c5c(F)cccc5F)nnc42)C3(C)C)no1` [Example 66, 1-(3-{[(5R,8R)-3-(2,6-difluorophenyl)-9,9-dimethyl-6,7-dihydro-5,8-methanocinnolin-8(5H)-yl]methyl}-1,2,4-oxadiazol-5-yl)-N,N-dimethylmethanamine], 298 nM; as for `CN1CCN(C[C@]23CC[C@H](c4cc(-c5ccccc5F)nnc42)C3(C)C)C1=O` [Example 46, 1-{[(5S,8R)-3-(2-fluorophenyl)-9,9-dimethyl-6,7-dihydro-5,8-methanocinnolin-8(5H)-yl]methyl}-3-methylimidazolidin-2-one], 1450 nM.

Regarding `CC1(C)[C@H]2CC[C@]1(CN(CCC#N)C(N)=O)c1nnc(-c3c(F)cccc3F)cc12` [Example 310, 1-(2-cyanoethyl)-1-(((5R,8S)-3-(2,6-difluorophenyl)-9,9-dimethyl-5,6,7,8-tetrahydro-5,8-methanocinnolin-8-yl)methyl)urea], the IC50 was determined as 363 nM. As for `COC[C@@]12CC[C@@H](c3cc(-c4ccccc4F)nnc31)C2(C)C` [Example 28, (5R,8R)-3-(2-fluorophenyl)-8-(methoxymethyl)-9,9-dimethyl-5,6,7,8-tetrahydro-5,8-methanocinnoline], the figure is 210 nM; as for `CC1(C)C2CCC1(C(=O)N1CC(N3CC[C@H](F)C3)C1)c1nnc(-c3c(F)cccc3F)cc12` (stereo in doubt) [Example 248, ((5S,8S)-3-(2,6-difluorophenyl)-9,9-dimethyl-5,6,7,8-tetrahydro-5,8-methanocinnolin-8-yl)(3-((S)-3-fluoropyrrolidin-1-yl)azetidin-1-yl) methanone], 387 nM; as for `C=C1C[C@@H]2c3cc(-c4ccccc4F)nnc3[C@@]1(C)C2(C)C` [Example 51, (5S,8R)-3-(2-fluorophenyl)-8,9,9-trimethyl-7-methylidene-5,6,7,8-tetrahydro-5,8-methanocinnoline], 657 nM. As for `CN(CC(N)=O)[C@@]12CC[C@@H](c3cc(-c4c(F)cccc4F)nnc31)C2(C)C` [Example 306, 2-(((5R,8R)-3-(2,6-difluorophenyl)-9,9-dimethyl-5,6,7,8-tetrahydro-5,8-methanocinnolin-8-yl)(methyl)amino) acetamide], the figure is 920 nM. As for `Cc1ccnc(C2CN(C(=O)[C@@]34CC[C@@H](c5cc(-c6ccccc6F)nnc53)C4(C)C)C2)n1` [Example 181, ((5R,8R)-3-(2-fluorophenyl)-9,9-dimethyl-5,6,7,8-tetrahydro-5,8-methanocinnolin-8-yl)(3-(4-methylpyrimidin-2-yl)azetidin-1-yl)methanone], the figure is 2750 nM.

For `CC(=O)N(C)C1CCN(C(=O)[C@]23CC[C@H](c4cc(-c5c(F)cccc5F)nnc42)C3(C)C)C1` (stereo partly drawn) [Example 203, N-(1-((5S,8S)-3-(2,6-difluorophenyl)-9,9-dimethyl-5,6,7,8-tetrahydro-5,8-methanocinnoline-8-carbonyl)pyrrolidin-3-yl)-N-methylacetamide], the IC50 amounted to 1220 nM.

As to `CC1(C)[C@H]2CC[C@]1(C(=O)NC1CCC1)c1nnc(-c3ccccc3F)cc12` [Example 177, (5R,8R)-N-cyclobutyl-3-(2-fluorophenyl)-9,9-dimethyl-5,6,7,8-tetrahydro-5,8-methanocinnoline-8-carboxamide], the 50% inhibitory concentration (IC50) came to 1500 nM. The figure for `CC1(C)[C@H]2CC[C@]1(C)c1nnc(Oc3ccccc3F)cc12` [Example 98, (5R,8S)-3-(2-fluorophenoxy)-8,9,9-trimethyl-5,6,7,8-tetrahydro-5,8-methanocinnoline] is 600 nM; for `CC1(C)[C@@H]2CC[C@@]1(C#N)c1nnc(-c3ccccc3F)cc12` [Example 52, (5S,8S)-3-(2-fluorophenyl)-9,9-dimethyl-6,7-dihydro-5,8-methanocinnoline-8(5H)-carbonitrile] it is 1530 nM. As for `CC1(C)[C@H]2CC[C@]1(CN1CCOC1=O)c1nnc(-c3c(F)cccc3F)cc12` [Example 279, 3-(((5R,8S)-3-(2,6-difluorophenyl)-9,9-dimethyl-5,6,7,8-tetrahydro-5,8-methanocinnolin-8-yl)methyl)oxazolidin-2-one], the figure is 222 nM.
